Source: ChEMBL document CHEMBL1909046, “DrugMatrix in vitro pharmacology data”

Experiments:
[1] = biological target: T1, Nitric oxide synthase, inducible (Mus musculus, UniProt P29477); set-up: species or system Escherichia coli;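 further: inhibition of iNOS enzyme activity measured with L-arginine as substrate; in other assays of this panel Not Active means under 50% inhibition at 10 µM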
T1 sequence (P29477 whole entry): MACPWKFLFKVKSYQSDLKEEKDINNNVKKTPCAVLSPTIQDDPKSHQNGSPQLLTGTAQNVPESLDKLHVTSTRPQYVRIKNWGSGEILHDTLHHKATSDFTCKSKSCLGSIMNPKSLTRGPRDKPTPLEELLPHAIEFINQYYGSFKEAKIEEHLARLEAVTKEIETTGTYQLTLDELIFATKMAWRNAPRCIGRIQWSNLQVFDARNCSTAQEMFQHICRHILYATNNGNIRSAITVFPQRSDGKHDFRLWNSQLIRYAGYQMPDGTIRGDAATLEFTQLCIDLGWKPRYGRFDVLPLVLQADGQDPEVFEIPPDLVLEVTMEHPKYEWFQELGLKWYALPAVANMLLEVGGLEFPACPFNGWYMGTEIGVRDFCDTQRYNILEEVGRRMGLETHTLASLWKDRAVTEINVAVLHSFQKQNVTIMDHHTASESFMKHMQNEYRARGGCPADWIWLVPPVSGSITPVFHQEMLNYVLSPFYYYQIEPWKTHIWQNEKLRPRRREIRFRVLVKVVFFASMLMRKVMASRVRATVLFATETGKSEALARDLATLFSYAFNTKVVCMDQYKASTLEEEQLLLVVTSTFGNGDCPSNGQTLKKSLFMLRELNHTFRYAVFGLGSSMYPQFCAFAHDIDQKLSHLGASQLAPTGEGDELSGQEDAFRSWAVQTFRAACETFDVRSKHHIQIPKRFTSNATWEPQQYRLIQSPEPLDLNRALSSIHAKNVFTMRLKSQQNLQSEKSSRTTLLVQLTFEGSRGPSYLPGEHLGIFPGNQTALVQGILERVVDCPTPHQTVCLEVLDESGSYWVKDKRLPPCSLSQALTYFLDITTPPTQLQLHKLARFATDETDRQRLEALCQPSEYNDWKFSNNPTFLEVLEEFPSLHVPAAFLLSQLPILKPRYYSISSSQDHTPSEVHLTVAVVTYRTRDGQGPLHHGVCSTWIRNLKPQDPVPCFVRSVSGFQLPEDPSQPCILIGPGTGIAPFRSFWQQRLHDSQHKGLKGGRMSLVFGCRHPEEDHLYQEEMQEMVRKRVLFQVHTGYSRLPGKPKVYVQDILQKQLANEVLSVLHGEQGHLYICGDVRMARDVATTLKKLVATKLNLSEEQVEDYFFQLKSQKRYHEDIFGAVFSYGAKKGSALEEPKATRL

[2] = DRUGMATRIX: Phosphodiesterase PDE3 enzyme inhibition (substrate: [3H]cAMP + cAMP); format: tissue-based, Homo sapiens; details: platelet; Not Active = under 50% inhibition at 10 µM
[3] = biological target: Voltage-gated inwardly rectifying potassium channel KCNH2 (Homo sapiens, UniProt Q12809); details: hek293; further: in other assays of this panel Not Active means under 50% inhibition at 10 µM
[4] = biological target: T2, Angiotensin-converting enzyme (Oryctolagus cuniculus, UniProt P12822); format: tissue-based, Lung;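 further: enzymatic inhibition of angiotensin-converting enzyme measured with FAPGG as the substrate; in other assays of this panel Not Active means under 50% inhibition at 10 µM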
T2 sequence (P12822 whole entry): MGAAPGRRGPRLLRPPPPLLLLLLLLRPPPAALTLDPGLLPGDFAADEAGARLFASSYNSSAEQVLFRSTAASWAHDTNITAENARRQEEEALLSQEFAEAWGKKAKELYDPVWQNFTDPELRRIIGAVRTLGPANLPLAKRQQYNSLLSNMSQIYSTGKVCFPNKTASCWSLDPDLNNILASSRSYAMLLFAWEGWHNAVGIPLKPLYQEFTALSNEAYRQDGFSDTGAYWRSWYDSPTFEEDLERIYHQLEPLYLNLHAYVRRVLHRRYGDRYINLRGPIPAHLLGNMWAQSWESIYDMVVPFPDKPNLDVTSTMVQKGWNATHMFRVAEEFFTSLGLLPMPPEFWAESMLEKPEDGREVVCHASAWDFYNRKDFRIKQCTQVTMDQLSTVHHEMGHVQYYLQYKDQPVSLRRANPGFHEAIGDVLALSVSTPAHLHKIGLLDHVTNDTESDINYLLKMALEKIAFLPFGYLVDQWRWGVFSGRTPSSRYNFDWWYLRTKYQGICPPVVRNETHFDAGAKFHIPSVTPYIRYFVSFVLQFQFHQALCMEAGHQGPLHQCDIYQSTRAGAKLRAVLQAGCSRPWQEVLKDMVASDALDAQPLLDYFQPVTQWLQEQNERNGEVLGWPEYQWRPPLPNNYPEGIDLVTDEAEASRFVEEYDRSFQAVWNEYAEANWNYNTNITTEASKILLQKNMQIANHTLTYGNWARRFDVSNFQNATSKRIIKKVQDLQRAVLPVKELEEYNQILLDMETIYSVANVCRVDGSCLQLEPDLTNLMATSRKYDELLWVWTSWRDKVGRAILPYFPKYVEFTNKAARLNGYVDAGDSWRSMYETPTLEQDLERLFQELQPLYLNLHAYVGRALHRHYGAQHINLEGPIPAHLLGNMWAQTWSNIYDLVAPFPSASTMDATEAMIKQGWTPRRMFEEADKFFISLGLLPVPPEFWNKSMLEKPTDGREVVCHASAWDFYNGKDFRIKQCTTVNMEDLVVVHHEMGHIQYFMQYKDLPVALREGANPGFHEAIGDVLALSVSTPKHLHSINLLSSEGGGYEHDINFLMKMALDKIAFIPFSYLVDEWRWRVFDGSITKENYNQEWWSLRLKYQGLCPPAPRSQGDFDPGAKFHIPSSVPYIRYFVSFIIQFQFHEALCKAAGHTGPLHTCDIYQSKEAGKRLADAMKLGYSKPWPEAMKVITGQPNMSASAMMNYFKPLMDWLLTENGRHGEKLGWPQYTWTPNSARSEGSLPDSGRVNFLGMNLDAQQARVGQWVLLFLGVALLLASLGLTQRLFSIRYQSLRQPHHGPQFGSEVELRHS

[5] = biological target: T3, Calcitonin receptor (Homo sapiens, UniProt P30988); format: cell membranes, Membrane; details: t47d; further: in other assays of this panel Not Active means under 50% inhibition at 10 µM
T3 sequence (P30988 whole entry): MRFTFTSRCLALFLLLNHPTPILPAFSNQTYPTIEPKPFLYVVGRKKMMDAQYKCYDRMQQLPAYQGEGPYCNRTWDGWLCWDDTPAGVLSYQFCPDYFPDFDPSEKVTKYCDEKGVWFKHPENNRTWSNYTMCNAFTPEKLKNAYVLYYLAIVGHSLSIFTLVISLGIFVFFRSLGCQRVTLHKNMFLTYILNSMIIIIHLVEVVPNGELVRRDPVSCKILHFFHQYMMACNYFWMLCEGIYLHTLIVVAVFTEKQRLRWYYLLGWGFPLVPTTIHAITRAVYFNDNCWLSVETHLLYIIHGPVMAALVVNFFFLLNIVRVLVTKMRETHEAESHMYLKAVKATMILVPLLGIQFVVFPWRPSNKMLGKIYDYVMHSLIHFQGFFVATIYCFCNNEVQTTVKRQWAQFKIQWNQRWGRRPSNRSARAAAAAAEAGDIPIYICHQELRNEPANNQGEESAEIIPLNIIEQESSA

Chain of Voltage-gated inwardly rectifying potassium channel KCNH2 (Q12809 whole entry): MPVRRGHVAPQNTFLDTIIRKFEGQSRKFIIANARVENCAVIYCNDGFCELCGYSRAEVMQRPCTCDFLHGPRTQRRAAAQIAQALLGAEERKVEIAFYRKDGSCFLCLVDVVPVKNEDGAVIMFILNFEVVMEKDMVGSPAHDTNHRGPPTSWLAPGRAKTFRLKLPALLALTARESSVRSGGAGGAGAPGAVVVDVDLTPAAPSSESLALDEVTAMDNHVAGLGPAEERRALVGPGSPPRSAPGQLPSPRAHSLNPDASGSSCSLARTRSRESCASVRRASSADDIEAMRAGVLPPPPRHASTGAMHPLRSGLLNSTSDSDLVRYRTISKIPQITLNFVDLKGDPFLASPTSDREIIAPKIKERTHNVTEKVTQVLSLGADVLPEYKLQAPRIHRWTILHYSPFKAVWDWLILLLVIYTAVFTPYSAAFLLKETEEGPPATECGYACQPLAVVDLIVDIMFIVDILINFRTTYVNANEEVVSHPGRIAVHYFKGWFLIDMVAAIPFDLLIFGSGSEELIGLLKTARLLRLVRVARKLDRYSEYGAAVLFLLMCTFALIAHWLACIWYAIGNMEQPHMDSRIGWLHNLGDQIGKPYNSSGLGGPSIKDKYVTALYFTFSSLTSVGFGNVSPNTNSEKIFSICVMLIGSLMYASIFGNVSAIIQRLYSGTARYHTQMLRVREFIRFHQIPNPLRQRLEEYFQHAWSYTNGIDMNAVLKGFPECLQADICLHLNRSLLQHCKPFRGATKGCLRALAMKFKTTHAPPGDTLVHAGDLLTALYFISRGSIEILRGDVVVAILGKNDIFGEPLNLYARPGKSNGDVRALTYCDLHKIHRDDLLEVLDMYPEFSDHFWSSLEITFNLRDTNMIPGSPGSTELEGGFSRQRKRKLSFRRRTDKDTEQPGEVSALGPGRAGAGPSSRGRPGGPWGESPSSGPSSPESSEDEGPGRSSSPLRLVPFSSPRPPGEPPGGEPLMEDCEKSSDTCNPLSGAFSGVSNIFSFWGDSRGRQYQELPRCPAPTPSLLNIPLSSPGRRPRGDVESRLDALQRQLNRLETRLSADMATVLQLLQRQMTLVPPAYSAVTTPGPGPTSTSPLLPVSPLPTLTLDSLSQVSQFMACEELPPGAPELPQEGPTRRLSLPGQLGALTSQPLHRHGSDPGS

[Cl-].[Cl-].[Zn+2] [ZINC CHLORIDE]
Not Active: IC50 [1] | IC50 [2] | Ki [2] | IC50 [3] | Ki [3] | IC50 [4] | IC50 [5]
